Source: PubChem BioAssay AID248 (DTP/NCI, 2004)
Values joined by “and” are separate entries in the source; they are usually repeats but may differ in a detail not shown here. Equal values may be shown once. Toxic doses and inconclusive results are not listed.

Tested on: L1210 leukemia ip in BDF1 mice, survival T/C
Assay: NCI In Vivo Anticancer Drug Screen. Data for tumor model L1210 Leukemia (intraperitoneal) in B6D2F1 (BDF1) mice
Settings: endpoint: mean survival time, higher = longer survival
How it was run: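 In this screen, tumor-bearing mice given compound are compared to those given vehicle, and their survival values are reported as a treated-to-control quotient.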

[1] = dose: 100.0 mg/kg/injection, schedule: Q04DX003 (ip), vehicle: saline with Tween-80
[2] = dose: 200.0 mg/kg/injection, schedule: Q04DX003 (ip), vehicle: saline with Tween-80
[3] = dose: 400.0 mg/kg/injection, schedule: Q04DX003 (ip), vehicle: saline with Tween-80
[4] = dose: 100.0 mg/kg/injection, schedule: Q01DX009 (ip), vehicle: Klucel (hydroxypropylcellulose) (HPC)
[5] = dose: 100.0 mg/kg/injection, schedule: Q04DX002 (ip), vehicle: Klucel (hydroxypropylcellulose) (HPC)
[6] = dose: 200.0 mg/kg/injection, schedule: Q01DX009 (ip), vehicle: Klucel (hydroxypropylcellulose) (HPC)
[7] = dose: 400.0 mg/kg/injection, schedule: Q01DX009 (ip), vehicle: Klucel (hydroxypropylcellulose) (HPC)

With CCCCCCCCN1CCCNCC1 the T/C (dose: 6.25 mg/kg/injection, schedule: Q01DX009 (ip), vehicle: saline) was 96 % of control, the T/C (dose: 12.5 mg/kg/injection, schedule: Q01DX009 (ip), vehicle: saline) was 102 % of control and the T/C (dose: 25.0 mg/kg/injection, schedule: Q01DX009 (ip), vehicle: saline) was 96 % of control. For the same compound, the T/C (dose: 25.0 mg/kg/injection, schedule: Q04DX003 (ip), vehicle: saline) was 121 % of control, the T/C (dose: 50.0 mg/kg/injection, schedule: Q04DX003 (ip), vehicle: saline) was 109 % of control and the T/C (dose: 100.0 mg/kg/injection, schedule: Q04DX003 (ip), vehicle: saline) was 87 % of control.

O=C1NC(c2ccccc2)(c2ccccc2)C(O)N1CCO (stereo not given) was tested, and the T/C [1] was 101 % of control, the T/C [2] was 101 % of control and the T/C [3] was 98 % of control.

O=[N+]([O-])c1ccc(Oc2ccc(S(=O)(=O)c3ccc(Oc4ccc([N+](=O)[O-])cc4)c([N+](=O)[O-])c3)cc2[N+](=O)[O-])cc1 was tested, and the T/C (dose: 100.0 mg/kg/injection, schedule: Q01DX005 (ip), vehicle: Klucel (hydroxypropylcellulose) (HPC)) was 101 % of control, the T/C [4] was 102 % of control and the T/C [5] was 110 % of control. The T/C (dose: 200.0 mg/kg/injection, schedule: Q01DX005 (ip), vehicle: Klucel (hydroxypropylcellulose) (HPC)) was 97 % of control, the T/C [6] was 102 % of control and the T/C (dose: 200.0 mg/kg/injection, schedule: Q04DX002 (ip), vehicle: Klucel (hydroxypropylcellulose) (HPC)) was 96 % of control. For the same compound, the T/C (dose: 400.0 mg/kg/injection, schedule: Q01DX005 (ip), vehicle: Klucel (hydroxypropylcellulose) (HPC)) was 90 % of control, the T/C [7] was 98 % of control and the T/C (dose: 400.0 mg/kg/injection, schedule: Q04DX002 (ip), vehicle: Klucel (hydroxypropylcellulose) (HPC)) was 100 % of control.

In the case of O=C(NCCCCCCNC(=O)N1CC1)N1CC1, the T/C (dose: 0.08 mg/kg/injection, schedule: Q01DX009 (ip), vehicle: saline) is reported as 107 % of control, the T/C (dose: 0.15 mg/kg/injection, schedule: Q01DX009 (ip), vehicle: saline) is reported as 97 % of control and the T/C (dose: 0.19 mg/kg/injection, schedule: Q01DX009 (ip), vehicle: saline) is reported as 122 % of control. For the same compound, the T/C (dose: 0.3 mg/kg/injection, schedule: Q01DX009 (ip), vehicle: saline) was 119 % of control, the T/C (dose: 0.4 mg/kg/injection, schedule: Q04DX003 (ip), vehicle: saline) was 113 % of control and the T/C (dose: 0.66 mg/kg/injection, schedule: Q01DX009 (ip), vehicle: saline) was 168 % of control. The T/C (dose: 0.8 mg/kg/injection, schedule: Q04DX003 (ip), vehicle: saline) was 115 % of control, the T/C (dose: 1.4 mg/kg/injection, schedule: Q01DX009 (ip), vehicle: saline) was 117 % of control and the T/C (dose: 1.7 mg/kg/injection, schedule: Q01DX001 (ip), vehicle: saline) was 121 % of control. For the same compound, the T/C (dose: 2.2 mg/kg/injection, schedule: Q01DX009 (ip), vehicle: saline) was 86 % of control, the T/C (dose: 2.5 mg/kg/injection, schedule: Q04DX003 (ip), vehicle: saline) was 166 % of control and the T/C (dose: 3.75 mg/kg/injection, schedule: Q01DX001 (ip), vehicle: saline) was 150 % of control.

CCCCCN1CCCC(OC(=O)N(C)C)C1 (stereo not given) was tested, and the T/C (dose: 25.0 mg/kg/injection, schedule: Q04DX002 (ip), vehicle: saline) was 106 % of control, the T/C (dose: 50.0 mg/kg/injection, schedule: Q04DX002 (ip), vehicle: saline) was 103 % of control and the T/C (dose: 100.0 mg/kg/injection, schedule: Q04DX002 (ip), vehicle: saline) was 86 % of control.

For CCOC(=O)c1ccc(NC(=O)c2cccc(Cl)c2)cc1, the T/C [5] was 94 % of control.

In the case of NC(=S)NN=C1CCCCCCCCC1, the T/C (dose: 100.0 mg/kg/injection, schedule: Q01DX001 (ip), vehicle: saline) is reported as 102 % of control.

COC(=O)c1[nH]cnc1/N=N/N(C)C.[Cl][Cu][Cl] was tested, and the T/C (dose: 9.0 mg/kg/injection, schedule: Q01DX009 (ip), vehicle: saline) was 106 % of control and 115 % of control, the T/C (dose: 13.0 mg/kg/injection, schedule: Q01DX009 (ip), vehicle: saline) was 107 % of control and 108 % of control and the T/C (dose: 20.0 mg/kg/injection, schedule: Q01DX009 (ip), vehicle: saline) was 122 % of control.

With COc1ccc(COC(=O)Nc2cccc(Cl)c2)cc1OC the T/C [4] was 96 % of control, the T/C [6] was 102 % of control and the T/C [7] was 103 % of control.

With Cc1ccc(N=C(c2ccccc2)c2ccc([N+](=O)[O-])cc2)cc1 the T/C [4] was 98 % of control, the T/C (dose: 100.0 mg/kg/injection, schedule: Q04DX003 (ip), vehicle: Klucel (hydroxypropylcellulose) (HPC)) was 105 % of control and the T/C [6] was 101 % of control. The T/C (dose: 200.0 mg/kg/injection, schedule: Q04DX003 (ip), vehicle: Klucel (hydroxypropylcellulose) (HPC)) was 93 % of control, the T/C [7] was 103 % of control and the T/C (dose: 400.0 mg/kg/injection, schedule: Q04DX003 (ip), vehicle: Klucel (hydroxypropylcellulose) (HPC)) was 102 % of control.

For CC(Br)(C(=O)O)C(Br)c1ccccc1 (stereo not given), the T/C [1] was 90 % of control, the T/C [2] was 95 % of control and the T/C [3] was 88 % of control.
